Patent US10413505B1, “Pharmaceutical compositions and methods of using the same” (priority 2017, dated 2019)

Key:
[1] = Example 2 plasma pharmacokinetics, normal renal function vs severe renal impairment; conditions: all samples in all individuals except four samples in one subject; Example 2
[2] = Example 3 plasma pharmacokinetics, normal hepatic function vs hepatic impairment
[3] = plasma, subjects with hepatic impairment, single intranasal dose

For `COC(=O)[C@H]1[C@@H](OC(=O)c2ccccc2)C[C@@H]2CC[C@H]1N2` [norcocaine], the “plasma concentration (below the LLOQ)” value [1] was less than 0.1 ng/mL, the “plasma concentration (not measurable, below LLOQ)” value ([2]; all subjects with normal hepatic function, all time points) was less than 0.1 ng/mL and the “plasma concentration, low levels detected” value ([2]; multiple time points in three Grade B impaired subjects) was no more than 0.31 ng/mL. The “AUC0→t (Geometric mean)” value [2, 3] was 0.753 ng·h/mL, the “AUC0→t (Mean)” value [2, 3] was 0.950 ng·h/mL and the “AUC0→t (Median)” value [2, 3] was 0.788 ng·h/mL. For the same compound, the “Clast (Geometric mean)” value [2, 3] was 0.126 ng/mL, the “Clast (Mean)” value [2, 3] was 0.127 ng/mL and the “Clast (Median)” value [2, 3] was 0.126 ng/mL. For the same compound, the “Cmax (Geometric mean)” value [2, 3] was 0.219 ng/mL, the “Cmax (Mean)” value [2, 3] was 0.227 ng/mL and the “Cmax (Median)” value [2, 3] was 0.212 ng/mL. For the same compound, the “Tlast (Geometric mean)” value [2, 3] was 5.24 h, the “Tlast (Mean)” value [2, 3] was 6.33 h and the “Tlast (Median)” value [2, 3] was 4.00 h. The “Tmax (Geometric mean)” value [2, 3] was 1.50 h, the “Tmax (Mean)” value [2, 3] was 1.50 h and the “Tmax (Median)” value [2, 3] was 1.50 h. For the same compound, the “t1/2 (Geometric mean)” value [2, 3] was 5.07 h, the “t1/2 (Mean)” value [2, 3] was 6.23 h and the “t1/2 (Median)” value [2, 3] was 6.23 h. The plasma concentration ([2]; single time point (7 min) in one Grade B subject) was 0.354 ng/mL.
